Laboratory results from patent EP4635944A1, “2-AZABICYCLO[3.1.1]HEPTANE COMPOUND” (Daiichi Sankyo Company, Limited, priority 2022, dated 2024).
pEC50: −log10 of the molar value.

Legend:
human OX2R = target: T1, human OX2R (Homo sapiens, UniProt O43614); assay: Evaluation of OX2R agonist activity (intracellular calcium, CHO-K1 cells with forced expression of human OX2R); type: cell-based; conditions: CHO-K1 cells expressing human OX2R; 100% = 5 µM of the reference compound; read-out: hOX2R EC50
T1 construct: host or cells: CHO-K1 (Chinese Hamster Ovary K1)
T1 sequence (O43614 1-444): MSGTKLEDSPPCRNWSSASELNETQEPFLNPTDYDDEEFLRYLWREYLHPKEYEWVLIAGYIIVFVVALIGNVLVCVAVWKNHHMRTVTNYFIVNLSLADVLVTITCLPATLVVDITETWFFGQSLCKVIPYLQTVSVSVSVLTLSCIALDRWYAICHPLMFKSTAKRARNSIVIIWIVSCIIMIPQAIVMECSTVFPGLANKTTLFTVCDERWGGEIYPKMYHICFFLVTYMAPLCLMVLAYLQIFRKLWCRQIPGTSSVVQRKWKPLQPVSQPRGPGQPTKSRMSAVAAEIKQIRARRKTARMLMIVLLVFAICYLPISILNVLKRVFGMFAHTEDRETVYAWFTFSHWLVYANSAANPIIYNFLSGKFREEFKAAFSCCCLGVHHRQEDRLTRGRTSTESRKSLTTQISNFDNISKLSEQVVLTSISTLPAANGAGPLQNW
How it was run: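 Cells seeded 7500/well, cultured 24 h, loaded with Fluo 4-AM (2.5 µg/mL final) plus probenecid for 30 min. Calcium response read as 480/540 nm excitation ratio; max–min signal 5–7 s after compound addition, normalized to buffer (0%) and 5 µM reference agonist (100%). EC50 from concentration series; 0.5% DMSO final.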

[1] = Evaluation of ERM production (GSH adduct detection in human liver microsomes); type: in vitro ADME; conditions: test compound 500 µM, human liver microsomes 2 mg/mL, GSH/SI-GSH, 37°C for 60 minutes; negative = no metabolite GSH adduct pair peak
Description: Evaluation of ERM production from OX2R agonist
The test compound (final concentration was 500 µM, dissolved in DMSO/acetonitrile = 1/9), pooled human liver microsomes (final concentration was 2 mg/mL), L-glutathione reduced (GSH, final concentration was 0.5 mM), potassium phosphate buffer (pH 7.4, final concentration was 100 mM), and stable isotope labeled GSH (SI-GSH, final concentration was 0.5 mM) were admixed and preincubated at 37°C for 3 minutes. Thereafter, a mixed solution of glucose-6-phosphate (final concentration was 25 mM), β-nicotinamide adenine dinucleotide phosphate (final concentration was 0.25 mM), glucose-6-phosphate dehydrogenase (final concentration was 2 U/mL), and magnesium chloride (final concentration was 10 mM) was added, and incubation was performed at 37°C for 60 minutes. After the incubation, the reaction was stopped by adding a 2-fold volume of acetonitrile. A portion of the supernatant after centrifugation (about 1200 × g, 4°C, 15 minutes) was injected into a liquid chromatograph quadrupole time-of-flight mass spectrometer (Q-Tof) for analysis. The mass number of metabolites, GSH adduct and SI-GSH adduct, predicted from the chemical structural formula of the test compound was calculated, and the presence of the corresponding peaks in the measurement sample was checked. Peaks with the same retention time and approximately equal peak area of the detected peaks of the metabolites, GSH adduct and SI-GSH adduct, were extracted as pair peaks. The presence of a pair peak determined to be a metabolite GSH adduct was considered positive for ERM production potential, whereas the absence of such a peak was considered negative for ERM production potential.

[2] = Evaluation of metabolic stability in human liver microsomes; type: in vitro ADME; conditions: for Human metabolic stability Residual ratio (%): test compound 1 µM, human liver microsomes 0.5 mg/mL, 30 minutes at 37°C; for metabolic stability compared to the corresponding compounds that were not deuterated: human liver microsomes, 30 minutes, deuterated at specific positions
Description: Evaluation of metabolic stability of OX2R agonist
The test compound (final concentration was 1 µM, dissolved in DMSO/acetonitrile = 1/99), pooled human liver microsomes (final concentration was 0.5 mg/mL), and sodium phosphate buffer (pH 7.4, final concentration was 100 mM) were admixed and preincubated at 37°C for 15 minutes. Thereafter, a mixed solution of glucose-6-phosphate (final concentration was 10 mM), glucose-6-phosphate dehydrogenase (final concentration was 1 U/mL), and magnesium chloride (final concentration was 3.3 mM) was added and a certain amount of the mixture was collected. Then, an acetonitrile/methanol mixed solution (75/25, v/v) containing a 4.5-fold volume of internal standard substances (final concentrations: phenacetin: 1 ng/mL, niflumic acid: 15 ng/mL, furosemide: 20 ng/mL) was added to stop the reaction (0 min sample). Subsequently, β-nicotinamide adenine dinucleotide phosphate (final concentration was 1 mM) was added, and after 30 minutes of incubation at 37°C, a certain amount of the mixture was collected, to which an acetonitrile/methanol mixed solution (75/25, v/v) containing a 4.5-fold volume of the internal standard substances was added to stop the reaction (30 min sample). For both samples, a portion of the supernatant after centrifugation (about 1200 × g, 4°C, 15 minutes) was injected into a liquid chromatograph tandem quadrupole mass spectrometer (LC-MS/MS) for analysis. The metabolic stability was evaluated by comparing the test compound/internal standard substance ratio of the 30 min sample with the 0 min sample and calculating the residual ratio of the test compound. […]

CC(C)(O)C(=O)N1C2CC(C2)C(NS(C)(=O)=O)C1Cc1cc(F)cc(-c2ccccc2)c1F (single isomer, unassigned) [Example 59, N-[(3S,4S)-3-[(2,5-Difluoro[biphenyl]-3-yl)methyl]-2-(2-hydroxy-2-methylpropanoyl)-2-azabicyclo[3.1.1]heptan-4-yl]methanesulfonamide or N-[(3R,4R)-3-[(2,5-difluoro[biphenyl]-3-yl)methyl]-2-(2-hydroxy-2-methylpropanoyl)-2-azabicyclo[3.1.1]heptan-4-yl]methanesulfonamide]
pEC50 (human OX2R): 7.06 | ERM production potential [1]: negative

CC(C)(O)C(=O)N1C2CC(C2)C(NS(C)(=O)=O)C1Cc1cc(F)cc(-c2cccc(Cl)c2)c1F (single isomer, unassigned) [Example 67, N-[(3S,4S)-3-[(3'-Chloro-2,5-difluoro[biphenyl]-3-yl)methyl]-2-(2-hydroxy-2-methylpropanoyl)-2-azabicyclo[3.1.1]heptan-4-yl]methanesulfonamide or N-[(3R,4R)-3-[(3'-chloro-2,5-difluoro[biphenyl]-3-yl)methyl]-2-(2-hydroxy-2-methylpropanoyl)-2-azabicyclo[3.1.1]heptan-4-yl]methanesulfonamide]
pEC50 (human OX2R): 7.15 | ERM production potential [1]: negative

CCS(=O)(=O)NC1C(Cc2cc(F)cc(-c3ccccc3)c2F)N(C(=O)[C@@H](C)O)C2CC1(F)C2 (single isomer, unassigned) [Example 91]
Human metabolic stability Residual ratio (%) [2]: 25% | pEC50 (human OX2R): 7.41

[2H]C([2H])([2H])C([2H])(O)C(=O)N1C2CC(C2)C(NS(=O)(=O)CC)C1Cc1cc(F)cc(-c2ccccc2)c1F (single isomer, unassigned) [Example 92, N-{3-[(2,5-Difluoro[biphenyl]-3-yl)methyl]-2-[2-hydroxy(^2H4)propanoyl]-2-azabicyclo[3.1.1]heptan-4-yl}ethanesulfonamide]
pEC50 (human OX2R): 7.70 | ERM production potential [1]: negative

[2H]C([2H])([2H])C([2H])(O)C(=O)N1C2CC(F)(C2)C(NS(=O)(=O)CC)C1Cc1cc(F)cc(-c2ccccc2)c1F (single isomer, unassigned) [Example 95, N-{3-[(2,5-Difluoro[biphenyl]-3-yl)methyl]-5-fluoro-2-[2-hydroxy(^2H4)propanoyl]-2-azabicyclo[3.1.1]heptan-4-yl}ethanesulfonamide]
metabolic stability compared to the corresponding compounds that were not deuterated [2]: improved metabolic stability | Human metabolic stability Residual ratio (%) [2]: 52% | pEC50 (human OX2R): 7.72

CC(C)(O)C(=O)N1C2CC(C2)[C@H](NS(C)(=O)=O)[C@@H]1Cc1cccc(-c2ccccc2)c1F [Example 10, N-[(3S,4S)-3-[(2-Fluoro[biphenyl]-3-yl)methyl]-2-(2-hydroxy-2-methylpropanoyl)-2-azabicyclo[3.1.1]heptan-4-yl]methanesulfonamide]
pEC50 (human OX2R): 6.53 | ERM production potential [1]: negative

C[C@@H](O)C(=O)N1C2CC(C2)[C@H](NS(C)(=O)=O)[C@@H]1Cc1cccc(-c2ccccc2)c1F [Example 25, N-{(3S,4S)-3-[(2-Fluoro[biphenyl]-3-yl)methyl]-2-[(2R)-2-hydroxypropanoyl]-2-azabicyclo[3.1.1]heptan-4-yl}methanesulfonamide]
Human metabolic stability Residual ratio (%) [2]: 34% | pEC50 (human OX2R): 7.62

C[C@@H](O)C(=O)N1C2CC(C2)[C@H](NS(C)(=O)=O)[C@@H]1Cc1cccc(-c2ccn(C)n2)c1F [Example 32, N-{(3S,4S)-3-[2-Fluoro-3-(1-methyl-1H-pyrazol-3-yl)benzyl]-2-[(2R)-2-hydroxypropanoyl]-2-azabicyclo[3.1.1]heptan-4-yl}methanesulfonamide]
pEC50 (human OX2R): 6.27 | ERM production potential [1]: negative

C[C@@H](O)C(=O)N1C2CC(F)(C2)[C@H](NS(C)(=O)=O)[C@@H]1Cc1cccc(-c2ccccc2)c1F [Example 53, N-{(3S,4R)-5-Fluoro-3-[(2-fluoro[biphenyl]-3-yl)methyl]-2-[(2R)-2-hydroxypropanoyl]-2-azabicyclo[3.1.1]heptan-4-yl}methanesulfonamide]
Human metabolic stability Residual ratio (%) [2]: 49% | pEC50 (human OX2R): 7.72

CS(=O)(=O)N[C@H]1C2CC(C2)N(C(=O)C2(O)CCC2)[C@H]1Cc1cccc(-c2ccccc2)c1F [Example 62, N-{(3S,4S)-3-[(2-Fluoro[biphenyl]-3-yl)methyl]-2-[(1-hydroxycyclobutyl)carbonyl]-2-azabicyclo[3.1.1]heptan-4-yl}methanesulfonamide]
pEC50 (human OX2R): 7.85 | ERM production potential [1]: negative

C[C@@H](O)C(=O)N1C2CC(F)(C2)[C@H](NS(C)(=O)=O)[C@@H]1Cc1cc(F)cc(-c2ccccc2)c1F [Example 63, N-{(3S,4R)-3-[(2,5-Difluoro[biphenyl]-3-yl)methyl]-5-fluoro-2-[(2R)-2-hydroxypropanoyl]-2-azabicyclo[3.1.1]heptan-4-yl}methanesulfonamide]
Human metabolic stability Residual ratio (%) [2]: 38% | pEC50 (human OX2R): 7.66

CC(C)(O)C(=O)N1C2CC(F)(C2)[C@H](NS(C)(=O)=O)[C@@H]1Cc1cc(F)cc(-c2ccccc2)c1F [Example 74, N-[(3S,4R)-3-[(2,5-Difluoro[biphenyl]-3-yl)methyl]-5-fluoro-2-(2-hydroxy-2-methylpropanoyl)-2-azabicyclo[3.1.1]heptan-4-yl]methanesulfonamide]
pEC50 (human OX2R): 7.14 | ERM production potential [1]: negative

CC(C)(O)C(=O)N1C2CC(F)(C2)[C@H](NS(C)(=O)=O)[C@@H]1Cc1cc(F)cc(-c2cccc(Cl)c2)c1F [Example 77, N-[(3S,4R)-3-[(3'-Chloro-2,5-difluoro[biphenyl]-3-yl)methyl]-5-fluoro-2-(2-hydroxy-2-methylpropanoyl)-2-azabicyclo[3.1.1]heptan-4-yl]methanesulfonamide]
pEC50 (human OX2R): 7.34 | ERM production potential [1]: negative

[2H][C@](C)(O)C(=O)N1C2CC(F)(C2)[C@H](NS(C)(=O)=O)[C@@H]1Cc1cccc(-c2ccccc2)c1F [Example 99, N-{(3S,4R)-5-Fluoro-3-[(2-fluoro[biphenyl]-3-yl)methyl]-2-[(2R)-2-hydroxy(2-^2H)propanoyl]-2-azabicyclo[3.1.1]heptan-4-yl}methanesulfonamide]
metabolic stability compared to the corresponding compounds that were not deuterated [2]: improved metabolic stability | Human metabolic stability Residual ratio (%) [2]: 78% | pEC50 (human OX2R): 7.57

[2H][C@](C)(O)C(=O)N1C2CC(F)(C2)[C@H](NS(C)(=O)=O)[C@@H]1Cc1cc(F)cc(-c2ccccc2)c1F [Example 100, N-{(3S,4R)-3-[(2,5-Difluoro[biphenyl]-3-yl)methyl]-5-fluoro-2-[(2R)-2-hydroxy(2-^2H)propanoyl]-2-azabicyclo[3.1.1]heptan-4-yl}methanesulfonamide]
metabolic stability compared to the corresponding compounds that were not deuterated [2]: improved metabolic stability | Human metabolic stability Residual ratio (%) [2]: 70% | pEC50 (human OX2R): 7.37
